Numbers after ± are expanded uncertainties.

The conditions of the data set: Liquid; Ebulliometric method (Recirculating still).

`CCOCC(C)O` (centres undefined) [1-ethoxy-2-propanol]: the Normal boiling temperature turned out to be 131.89 ± 0.7 °C.

For `CC(C)OC(C)C` [diisopropyl ether], the Normal boiling temperature came out at 68.57 ± 0.7 °C. As for `CCCO` [propan-1-ol], the Normal boiling temperature was determined as 96.8 ± 0.7 °C. `CC(C)O` [propan-2-ol]: the Normal boiling temperature was 82.18 ± 0.7 °C.

(Values after the NIST ThermoML archive (doi:10.1016/j.jct.2019.03.018).)
